Experimental data published in patent US6410054B1, “Immediate release eplerenone compositions” (G. D. Searle & Co., priority 1998, dated 2002).

How the values were obtained:
[1] = Single dose study: safety; type: in vivo; conditions: single 10-1000 mg oral doses, healthy male humans
Experimental: Antialdosterone activity was determined based on urine levels of sodium and potassium following repeated administration of fludrocortisone. Safety was determined on the basis of laboratory tests, vital signs, and the occurrence and types of adverse events.

[2] = Single dose study: urinary excretion of eplerenone and open lactone ring form; type: in vivo, humans
Experimental: The study employed seven parallel dose groups of eight healthy male humans.
The plasma samples collected from subjects dosed with eplerenone were assayed for concentrations of eplerenone and the open lactone ring form of eplerenone. […] A subset of plasma samples was also assayed for testosterone levels. The urine collected was analyzed to determine concentrations and amounts of eplerenone and the open lactone ring form of eplerenone, the amount of sodium and potassium excreted, and the urinary log10 (sodium/potassium) ratio.

[3] = Effect of food study: safety and tolerability; type: in vivo, humans; conditions: single 100 mg dose, fasted or fed
Experimental: An open-label randomized, cross-over study was employed to evaluate the pharmacokinetic profiles of eplerenone under fasted and fed conditions, and the safety and tolerability of eplerenone. Safety was assessed based on adverse events, vital signs and clinical laboratory tests. Twelve healthy male subjects were randomized to receive a single 100 mg dose of eplerenone on days 1 and 8 under (i) fasted conditions, or (ii) immediately following a high-fat breakfast. The subjects were orally administered (dosed) a single 100 mg dose of eplerenone in the form of the capsule described in Example 7, together with approximately 200 to 240 mL of water at 0800 hours on days 1 and 8. Subjects randomized to receive a high-fat breakfast were to completely ingest the meal within 20 minutes prior to dosing. The high-fat meal contained approximately 33 g protein, 75 g fat, 58 g carbohydrates and 1000 calories. […] All adverse events were mild in severity.

[4] = Multiple dose study: serum electrolytes, renin, aldosterone, sex hormone and thyroid profiles; type: in vivo, humans
Experimental: Multiple oral dose tolerability and the pharmacokinetics of several dosages of eplerenone were evaluated in a double-blind, randomized, placebo-controlled, rising oral dose, sequential panel study of 40 healthy male subjects (five groups of eight subjects). The study medication was administered in […] sequential dose panels, with each panel including eplerenone, spironolactone and placebo. […] The 100 mg and 200 mg dose capsules corresponded to those described in Examples 7 and 8, respectively. Following a 48-hour interval, the study drug was administered once a day for 11 days. Antialdosterone activity was determined following a fludrocortisone challenge on Days 12-13.
Excretion of total eplerenone (that is, eplerenone and its open ring lactone form) in the urine represented approximately 5% of the dose for all doses administered. Urinary excretion of total eplerenone occurred almost entirely within the first 24 hours after dosing.

## COC(=O)C1CC2=CC(=O)CCC2(C)C23OC2CC2(C)C(CC[C@@]24CCC(=O)O4)C13 (stereo partly drawn) [eplerenone, methyl hydrogen 9,11α-epoxy-17α-hydroxy-3-oxopregn-4-ene-7α,21-dicarboxylate, γ-lactone]
[1]
  changes in physical examinations, vital signs or clinical laboratory results: no clinically significant changes
  severity of adverse events: mild
[2]; 10 mg dose, 0 to 2 hours
  Amount of Eplerenone Excreted in Urine: (21.6) mcg
  Concentration of Eplerenone Excreted in Urine: 278.0 ng/mL
[2]; 10 mg dose, 0 to 24 hours
  Amount of Eplerenone Excreted in Urine: (78.8) mcg
[2]; 10 mg dose, 2 to 4 hours
  Amount of Eplerenone Excreted in Urine: (35.8) mcg
  Concentration of Eplerenone Excreted in Urine: 191.1 ng/mL
[2]; 10 mg dose, 4 to 6 hours
  Amount of Eplerenone Excreted in Urine: (16.5) mcg
  Concentration of Eplerenone Excreted in Urine: 107.2 ng/mL
[2]; 10 mg dose, 6 to 8 hours
  Amount of Eplerenone Excreted in Urine: (7.6) mcg
  Concentration of Eplerenone Excreted in Urine: 63.8 ng/mL
[2]; 10 mg dose, 8 to 10 hours
  Amount of Eplerenone Excreted in Urine: (0) mcg
  Concentration of Eplerenone Excreted in Urine: 0 ng/mL
[2]; 10 mg dose, 10 to 12 hours
  Amount of Eplerenone Excreted in Urine: (0) mcg
  Concentration of Eplerenone Excreted in Urine: 0 ng/mL
[2]; 10 mg dose, 12 to 14 hours
  Amount of Eplerenone Excreted in Urine: (0) mcg
  Concentration of Eplerenone Excreted in Urine: 0 ng/mL
[2]; 10 mg dose, 14 to 16 hours
  Amount of Eplerenone Excreted in Urine: (0) mcg
  Concentration of Eplerenone Excreted in Urine: 0 ng/mL
[2]; 10 mg dose, 16 to 24 hours
  Amount of Eplerenone Excreted in Urine: (0) mcg
  Concentration of Eplerenone Excreted in Urine: 0 ng/mL
[2]; 10 mg dose, −9 to 0 hours
  Amount of Eplerenone Excreted in Urine: (0) mcg
  Concentration of Eplerenone Excreted in Urine: 0 ng/mL
[2]; 50 mg dose, 0 to 2 hours
  Amount of Eplerenone Excreted in Urine: (99.2) mcg
  Concentration of Eplerenone Excreted in Urine: 1252.2 ng/mL
[2]; 50 mg dose, 0 to 24 hours
  Amount of Eplerenone Excreted in Urine: (410.6) mcg
[2]; 50 mg dose, 2 to 4 hours
  Amount of Eplerenone Excreted in Urine: (175.3) mcg
  Concentration of Eplerenone Excreted in Urine: 1064.6 ng/mL
[2]; 50 mg dose, 4 to 6 hours
  Amount of Eplerenone Excreted in Urine: (60.6) mcg
  Concentration of Eplerenone Excreted in Urine: 518.3 ng/mL
[2]; 50 mg dose, 6 to 8 hours
  Amount of Eplerenone Excreted in Urine: (30.7) mcg
  Concentration of Eplerenone Excreted in Urine: 307.3 ng/mL
[2]; 50 mg dose, 8 to 10 hours
  Amount of Eplerenone Excreted in Urine: (27.6) mcg
  Concentration of Eplerenone Excreted in Urine: 172.4 ng/mL
[2]; 50 mg dose, 10 to 12 hours
  Amount of Eplerenone Excreted in Urine: (16.5) mcg
  Concentration of Eplerenone Excreted in Urine: 72.7 ng/mL
[2]; 50 mg dose, 12 to 14 hours
  Amount of Eplerenone Excreted in Urine: (11.3) mcg
  Concentration of Eplerenone Excreted in Urine: 23.1 ng/mL
[2]; 50 mg dose, 14 to 16 hours
  Amount of Eplerenone Excreted in Urine: (1.5) mcg
  Concentration of Eplerenone Excreted in Urine: 21.6 ng/mL
[2]; 50 mg dose, 16 to 24 hours
  Amount of Eplerenone Excreted in Urine: (4.0) mcg
  Concentration of Eplerenone Excreted in Urine: 13.1 ng/mL
[2]; 50 mg dose, −9 to 0 hours
  Amount of Eplerenone Excreted in Urine: (0) mcg
  Concentration of Eplerenone Excreted in Urine: 0 ng/mL
[2]; 100 mg dose, 0 to 2 hours
  Amount of Eplerenone Excreted in Urine: (360.2) mcg
  Concentration of Eplerenone Excreted in Urine: 2623.3 ng/mL
[2]; 100 mg dose, 0 to 24 hours
  Amount of Eplerenone Excreted in Urine: (1271.4) mcg
[2]; 100 mg dose, 2 to 4 hours
  Amount of Eplerenone Excreted in Urine: (407.6) mcg
  Concentration of Eplerenone Excreted in Urine: 2305.6 ng/mL
[2]; 100 mg dose, 4 to 6 hours
  Amount of Eplerenone Excreted in Urine: (285.1) mcg
  Concentration of Eplerenone Excreted in Urine: 1157.3 ng/mL
[2]; 100 mg dose, 6 to 8 hours
  Amount of Eplerenone Excreted in Urine: (158.8) mcg
  Concentration of Eplerenone Excreted in Urine: 627.6 ng/mL
[2]; 100 mg dose, 8 to 10 hours
  Amount of Eplerenone Excreted in Urine: (69.1) mcg
  Concentration of Eplerenone Excreted in Urine: 362.9 ng/mL
[2]; 100 mg dose, 10 to 12 hours
  Amount of Eplerenone Excreted in Urine: (44.7) mcg
  Concentration of Eplerenone Excreted in Urine: 146.6 ng/mL
[2]; 100 mg dose, 12 to 14 hours
  Amount of Eplerenone Excreted in Urine: (26.6) mcg
  Concentration of Eplerenone Excreted in Urine: 110.3 ng/mL
[2]; 100 mg dose, 14 to 16 hours
  Amount of Eplerenone Excreted in Urine: (6.6) mcg
  Concentration of Eplerenone Excreted in Urine: 36.5 ng/mL
[2]; 100 mg dose, 16 to 24 hours
  Amount of Eplerenone Excreted in Urine: (2.7) mcg
  Concentration of Eplerenone Excreted in Urine: 7.1 ng/mL
[2]; 100 mg dose, −9 to 0 hours
  Amount of Eplerenone Excreted in Urine: (0) mcg
  Concentration of Eplerenone Excreted in Urine: 0 ng/mL
[2]; 300 mg dose, 0 to 2 hours
  Amount of Eplerenone Excreted in Urine: (677.7) mcg
  Concentration of Eplerenone Excreted in Urine: 9370.1 ng/mL
[2]; 300 mg dose, 0 to 24 hours
  Amount of Eplerenone Excreted in Urine: (2872.3) mcg
[2]; 300 mg dose, 2 to 4 hours
  Amount of Eplerenone Excreted in Urine: (873.7) mcg
  Concentration of Eplerenone Excreted in Urine: 6465.9 ng/mL
[2]; 300 mg dose, 4 to 6 hours
  Amount of Eplerenone Excreted in Urine: (672.6) mcg
  Concentration of Eplerenone Excreted in Urine: 3865.2 ng/mL
[2]; 300 mg dose, 6 to 8 hours
  Amount of Eplerenone Excreted in Urine: (337.0) mcg
  Concentration of Eplerenone Excreted in Urine: 2237.8 ng/mL
[2]; 300 mg dose, 8 to 10 hours
  Amount of Eplerenone Excreted in Urine: (307.9) mcg
  Concentration of Eplerenone Excreted in Urine: 1208.6 ng/mL
[2]; 300 mg dose, 10 to 12 hours
  Amount of Eplerenone Excreted in Urine: (162.4) mcg
  Concentration of Eplerenone Excreted in Urine: 542.4 ng/mL
[2]; 300 mg dose, 12 to 14 hours
  Amount of Eplerenone Excreted in Urine: (97.4) mcg
  Concentration of Eplerenone Excreted in Urine: 419.6 ng/mL
[2]; 300 mg dose, 14 to 16 hours
  Amount of Eplerenone Excreted in Urine: (52.2) mcg
  Concentration of Eplerenone Excreted in Urine: 292.6 ng/mL
[2]; 300 mg dose, 16 to 24 hours
  Amount of Eplerenone Excreted in Urine: (50.4) mcg
  Concentration of Eplerenone Excreted in Urine: 126.4 ng/mL
[2]; 300 mg dose, −9 to 0 hours
  Amount of Eplerenone Excreted in Urine: (0) mcg
  Concentration of Eplerenone Excreted in Urine: 0 ng/mL
[2]; 1000 mg dose, 0 to 2 hours
  Amount of Eplerenone Excreted in Urine: (1482.0) mcg
  Concentration of Eplerenone Excreted in Urine: 17858.6 ng/mL
[2]; 1000 mg dose, 0 to 24 hours
  Amount of Eplerenone Excreted in Urine: (17246.6) mcg
[2]; 1000 mg dose, 2 to 4 hours
  Amount of Eplerenone Excreted in Urine: (5983.3) mcg
  Concentration of Eplerenone Excreted in Urine: 24460.3 ng/mL
[2]; 1000 mg dose, 4 to 6 hours
  Amount of Eplerenone Excreted in Urine: (4041.5) mcg
  Concentration of Eplerenone Excreted in Urine: 13899.7 ng/mL
[2]; 1000 mg dose, 6 to 8 hours
  Amount of Eplerenone Excreted in Urine: (2083.0) mcg
  Concentration of Eplerenone Excreted in Urine: 8782.1 ng/mL
[2]; 1000 mg dose, 8 to 10 hours
  Amount of Eplerenone Excreted in Urine: (1853.9) mcg
  Concentration of Eplerenone Excreted in Urine: 4491.0 ng/mL
[2]; 1000 mg dose, 10 to 12 hours
  Amount of Eplerenone Excreted in Urine: (1177.2) mcg
  Concentration of Eplerenone Excreted in Urine: 2361.1 ng/mL
[2]; 1000 mg dose, 12 to 14 hours
  Amount of Eplerenone Excreted in Urine: (892.8) mcg
  Concentration of Eplerenone Excreted in Urine: 3183.7 ng/mL
[2]; 1000 mg dose, 14 to 16 hours
  Amount of Eplerenone Excreted in Urine: (340.5) mcg
  Concentration of Eplerenone Excreted in Urine: 1405.2 ng/mL
[2]; 1000 mg dose, 16 to 24 hours
  Amount of Eplerenone Excreted in Urine: (366.0) mcg
  Concentration of Eplerenone Excreted in Urine: 658.0 ng/mL
[2]; 1000 mg dose, −9 to 0 hours
  Amount of Eplerenone Excreted in Urine: (0) mcg
  Concentration of Eplerenone Excreted in Urine: 0 ng/mL
[3]
  changes in vital signs or physical examinations: no clinically significant changes
  severity of adverse events: mild
[4]; 100-1000 mg
  mean plasma renin (active and total) levels: dose-related increases
  serum aldosterone levels: dose-related increases
  serum sex hormone and thyroid profiles: did not show any consistent, sustained or dose-related effects
[4]; multiple dose administration
  serum potassium concentrations: increases
  serum sodium concentrations: transient reductions
[4]; single doses
  serum sodium and potassium concentrations: not significantly changed
